Test results as given in ChEMBL document CHEMBL1909046, “DrugMatrix in vitro pharmacology data”.

Key:
Mu-type opioid receptor = Mu-type opioid receptor (Homo sapiens, UniProt P35372); test: DRUGMATRIX: Opiate mu (OP3, MOP) radioligand binding (ligand: [3H] Diprenorphine); assay type: cell membranes, CHO-K1, Membrane; details: cho-k1; Not Active = under 50% inhibition at 10 µM
[1] = molecular target: T1, 5-hydroxytryptamine receptor 2C (Homo sapiens, UniProt P28335); test: DRUGMATRIX: Serotonin (5-Hydroxytryptamine) 5-HT2C radioligand binding (ligand: [3H] Mesulergine); assay type: cell membranes, CHO-K1, Membrane; details: Not Active = under 50% inhibition at 10 µM
T1 sequence (P28335 whole entry): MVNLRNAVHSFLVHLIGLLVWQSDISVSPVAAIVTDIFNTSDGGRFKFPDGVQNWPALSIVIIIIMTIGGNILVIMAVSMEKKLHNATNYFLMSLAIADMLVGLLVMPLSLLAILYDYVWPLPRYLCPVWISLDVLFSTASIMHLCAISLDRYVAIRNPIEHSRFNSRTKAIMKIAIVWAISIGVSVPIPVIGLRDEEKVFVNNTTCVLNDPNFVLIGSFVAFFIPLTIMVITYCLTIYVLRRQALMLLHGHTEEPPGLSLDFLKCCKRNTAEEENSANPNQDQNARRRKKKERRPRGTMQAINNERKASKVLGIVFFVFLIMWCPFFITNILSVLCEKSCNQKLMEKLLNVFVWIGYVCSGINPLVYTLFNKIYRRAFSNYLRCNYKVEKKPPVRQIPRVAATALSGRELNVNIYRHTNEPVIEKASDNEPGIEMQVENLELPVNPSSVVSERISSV

Androgen receptor = molecular target: T2, Androgen receptor (Rattus norvegicus, UniProt P15207); note: in other assays of this panel Not Active means under 50% inhibition at 10 µM
T2 sequence (P15207 whole entry): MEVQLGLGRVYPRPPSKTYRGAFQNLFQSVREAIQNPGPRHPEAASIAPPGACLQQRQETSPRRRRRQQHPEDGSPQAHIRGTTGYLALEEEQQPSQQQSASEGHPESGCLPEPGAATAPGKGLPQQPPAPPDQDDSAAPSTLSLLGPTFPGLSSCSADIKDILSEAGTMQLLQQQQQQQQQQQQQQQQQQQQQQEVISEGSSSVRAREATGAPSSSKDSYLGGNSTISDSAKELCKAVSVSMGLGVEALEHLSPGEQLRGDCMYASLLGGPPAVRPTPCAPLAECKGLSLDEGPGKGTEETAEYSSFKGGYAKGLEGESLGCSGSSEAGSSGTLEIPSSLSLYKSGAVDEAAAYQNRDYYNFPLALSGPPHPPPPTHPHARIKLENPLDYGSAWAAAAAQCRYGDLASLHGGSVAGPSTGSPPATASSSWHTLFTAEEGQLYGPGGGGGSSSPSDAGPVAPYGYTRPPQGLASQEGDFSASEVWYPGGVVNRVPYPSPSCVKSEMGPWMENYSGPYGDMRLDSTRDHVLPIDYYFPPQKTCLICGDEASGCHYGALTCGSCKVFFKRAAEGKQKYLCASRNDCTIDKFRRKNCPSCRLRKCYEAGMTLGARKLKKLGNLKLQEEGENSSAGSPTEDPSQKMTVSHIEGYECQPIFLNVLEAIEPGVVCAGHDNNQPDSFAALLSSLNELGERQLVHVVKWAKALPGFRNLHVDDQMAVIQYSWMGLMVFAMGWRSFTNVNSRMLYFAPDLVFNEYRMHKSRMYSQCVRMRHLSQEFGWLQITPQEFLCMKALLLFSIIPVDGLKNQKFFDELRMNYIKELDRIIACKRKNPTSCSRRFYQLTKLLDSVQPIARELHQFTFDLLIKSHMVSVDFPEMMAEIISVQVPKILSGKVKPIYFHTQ

Glucocorticoid receptor = molecular target: T3, Glucocorticoid receptor (Homo sapiens, UniProt P04150); test: biochemical; note: in other assays of this panel Not Active means under 50% inhibition at 10 µM
T3 sequence (P04150 whole entry): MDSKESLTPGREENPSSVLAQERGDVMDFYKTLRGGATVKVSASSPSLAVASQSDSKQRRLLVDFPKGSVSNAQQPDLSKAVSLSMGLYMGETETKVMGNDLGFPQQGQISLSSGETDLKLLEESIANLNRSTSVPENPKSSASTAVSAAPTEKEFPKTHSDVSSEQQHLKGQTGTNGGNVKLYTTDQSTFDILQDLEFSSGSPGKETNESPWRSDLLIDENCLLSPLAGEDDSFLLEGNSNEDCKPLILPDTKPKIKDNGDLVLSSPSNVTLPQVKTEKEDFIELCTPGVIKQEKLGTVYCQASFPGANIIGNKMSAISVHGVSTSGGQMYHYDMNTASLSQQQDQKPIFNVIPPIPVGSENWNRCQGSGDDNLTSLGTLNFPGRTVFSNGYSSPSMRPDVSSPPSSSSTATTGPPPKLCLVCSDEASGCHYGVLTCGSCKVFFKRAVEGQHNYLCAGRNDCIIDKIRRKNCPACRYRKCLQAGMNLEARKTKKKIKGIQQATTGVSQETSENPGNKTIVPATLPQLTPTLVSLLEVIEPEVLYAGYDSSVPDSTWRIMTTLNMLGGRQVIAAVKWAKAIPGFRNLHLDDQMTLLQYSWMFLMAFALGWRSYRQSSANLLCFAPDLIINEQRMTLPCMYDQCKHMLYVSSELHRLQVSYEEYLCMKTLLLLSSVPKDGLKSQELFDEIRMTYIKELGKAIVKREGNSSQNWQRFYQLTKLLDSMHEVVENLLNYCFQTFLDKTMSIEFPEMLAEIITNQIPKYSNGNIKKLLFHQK

Chain of Mu-type opioid receptor (P35372 whole entry): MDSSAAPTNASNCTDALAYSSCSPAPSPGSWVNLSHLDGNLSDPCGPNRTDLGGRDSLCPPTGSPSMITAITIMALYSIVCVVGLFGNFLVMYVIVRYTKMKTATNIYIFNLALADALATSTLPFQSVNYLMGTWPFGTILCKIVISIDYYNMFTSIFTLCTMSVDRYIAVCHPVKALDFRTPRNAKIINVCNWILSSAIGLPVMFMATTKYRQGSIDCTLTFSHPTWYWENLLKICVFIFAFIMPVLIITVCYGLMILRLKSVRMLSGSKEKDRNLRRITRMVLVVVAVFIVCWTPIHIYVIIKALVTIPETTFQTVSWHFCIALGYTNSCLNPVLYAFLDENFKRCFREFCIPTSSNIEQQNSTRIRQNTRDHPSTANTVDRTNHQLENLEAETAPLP

| Molecule | IC50 (Mu-type opioid receptor) | IC50 ([1]; cho-k1) | IC50 (Androgen receptor) | other results |
| --- | --- | --- | --- | --- |
| CCN(CC)CCCC(C)Nc1c2ccc(Cl)cc2nc2ccc(OC)cc12 (stereo unspecified) [QUINACRINE] | Not Active | Not Active | Not Active | – |
| CC(C)NCC(O)c1ccccc1Cl (stereo unspecified) [CLORPRENALINE] | Not Active | Not Active | Not Active | – |
| C[C@]12C=CC(=O)C=C1CC[C@H]1[C@@H]3C[C@@H](O)[C@](O)(C(=O)CO)[C@@]3(C)C[C@H](O)[C@@]12F [TRIAMCINOLONE] | Not Active | Not Active | – | IC50 (Glucocorticoid receptor): 58 nM; Ki (Glucocorticoid receptor): 26 nM |
| CC(=O)OCC(=O)[C@@]1(O)CC[C@H]2[C@@H]3CCC4=CC(=O)CC[C@]4(C)[C@@]3(F)[C@@H](O)C[C@@]21C [FLUDROCORTISONE ACETATE] | Not Active | Not Active | Not Active | – |
| C[C@]12CC[C@@H]3c4ccc(O)cc4CC[C@H]3[C@@H]1C[C@@H](O)[C@@H]2O [ESTRIOL] | Not Active | Not Active | – | IC50 (Glucocorticoid receptor): 39300 nM; Ki (Glucocorticoid receptor): 17900 nM |
| CC(=O)OCC(=O)[C@@]12OC(C)(C)O[C@@H]1C[C@H]1[C@@H]3C[C@H](F)C4=CC(=O)C=C[C@]4(C)[C@@]3(F)[C@@H](O)C[C@@]12C [FLUOCINONIDE] | Not Active | Not Active | – | IC50 (Glucocorticoid receptor): 5.26 nM; Ki (Glucocorticoid receptor): 2.39 nM |
| CC[C@]1(O)C[C@@H]2CN(CCc3c([nH]c4ccccc34)[C@@](C(=O)OC)(c3cc4c(cc3OC)N(C)[C@H]3[C@@](O)(C(N)=O)[C@H](O)[C@]5(CC)C=CCN6CC[C@]43[C@@H]65)C2)C1 [VINDESINE] | Not Active | Not Active | Not Active | – |
| NC(=O)c1cccc(N)c1 [3-AMINOBENZAMIDE] | Not Active | Not Active | Not Active | – |
| CC(=O)OC[C@H]1O[C@@H](n2ncc(=O)[nH]c2=O)[C@H](OC(C)=O)[C@@H]1OC(C)=O [AZARIBINE] | Not Active | Not Active | Not Active | – |
| CCC1=C(C)CN(C(=O)NCCc2ccc(S(=O)(=O)NC(=O)N[C@H]3CC[C@H](C)CC3)cc2)C1=O [GLIMEPIRIDE] | Not Active | Not Active | Not Active | – |
| O=C(O)CCCc1cccs1 | Not Active | Not Active | Not Active | – |
| Cc1ccc(C)c(OCCCC(C)(C)C(=O)O)c1 [GEMFIBROZIL] | Not Active | Not Active | Not Active | – |
| COc1cc(OC)c(C(=O)CCCN2CCCC2)c(OC)c1 [BUFLOMEDIL] | Not Active | Not Active | Not Active | – |
| COC(=O)Nc1nc2cc(C(=O)c3ccc(F)cc3)ccc2[nH]1 [FLUBENDAZOLE] | Not Active | Not Active | Not Active | – |
| CNC1=Nc2ccc(Cl)cc2C(c2ccccc2)=[N+]([O-])C1 [CHLORDIAZEPOXIDE] | Not Active | Not Active | Not Active | – |
| C[C@@H]1O[C@@H](O[C@H]2C[C@@H](O)[C@]3(CO)[C@H]4[C@H](O)C[C@]5(C)[C@@H](C6=CC(=O)OC6)CC[C@]5(O)[C@@H]4CC[C@]3(O)C2)[C@H](O)[C@H](O)[C@H]1O [OUABAIN] | – | Not Active | Not Active | – |
| CCOC(=O)c1ncn2c1CN(C)C(=O)c1cc(F)ccc1-2 [FLUMAZENIL] | Not Active | Not Active | Not Active | – |
| COBALTOUS CHLORIDE | – | Not Active | Not Active | Ki ([1]; cho-k1): Not Active; Ki (Androgen receptor): Not Active |
| COLISTIN | – | Not Active | Not Active | Ki ([1]; cho-k1): Not Active; Ki (Androgen receptor): Not Active |
| CN1C(=O)CN=C(c2ccccc2)c2cc([N+](=O)[O-])ccc21 [NIMETAZEPAM] | Not Active | Not Active | Not Active | – |

| Molecule | IC50 (Mu-type opioid receptor) | IC50 ([1]; cho-k1) | IC50 (Androgen receptor) | other results |
| --- | --- | --- | --- | --- |
| N=C(N)c1ccc(OCCCCCOc2ccc(C(=N)N)cc2)cc1 [PENTAMIDINE] | Not Active | – | – | IC50 ([1]; read-out: IC50): 3280 nM; Ki ([1]; read-out: Ki): 1720 nM |
| CCOc1nc2cccc(C(=O)O)c2n1Cc1ccc(-c2ccccc2-c2nnn[nH]2)cc1 | Not Active | Not Active | Not Active | – |
| COc1cccc2c1C(=O)c1c(O)c3c(c(O)c1C2=O)C[C@@](O)(C(C)=O)C[C@@H]3O[C@H]1C[C@H](N)[C@H](O)[C@H](C)O1 [DAUNORUBICIN] | Not Active | Not Active | – | – |
| CC(O)(P(=O)(O)O)P(=O)(O)O [ETIDRONIC ACID] | Not Active | Not Active | – | – |
| CC(=O)Oc1ccccc1C(=O)O [ASPIRIN] | Not Active | Not Active | Not Active | – |
| O=c1[nH]c(=O)n([C@H]2C[C@H](O)[C@@H](CO)O2)cc1F [FLOXURIDINE] | Not Active | Not Active | – | – |
| O=C(O)CC(O)(CC(=O)O)C(=O)O [CITRIC ACID] | Not Active | Not Active | – | – |
| CCCCC1=NC2(CCCC2)C(=O)N1Cc1ccc(-c2ccccc2-c2nnn[nH]2)cc1 [IRBESARTAN] | Not Active | Not Active | – | – |
| O=c1c(-c2ccc(O)cc2)coc2cc(O)cc(O)c12 [GENISTEIN] | Not Active | – | Not Active | IC50 ([1]; read-out: IC50): 14900 nM; Ki ([1]; read-out: Ki): 7810 nM |
| CN(C)C(=N)NC(=N)N [METFORMIN] | Not Active | Not Active | – | – |
| C[C@H]1O[C@H](O[C@H]2[C@H](O)[C@@H](O)[C@@H](O[C@H]3[C@H](O)[C@@H](O)C(O)O[C@@H]3CO)O[C@@H]2CO)[C@H](O)[C@@H](O)[C@@H]1N[C@H]1C=C(CO)[C@@H](O)[C@H](O)[C@H]1O (stereo partly specified) [ACARBOSE] | Not Active | Not Active | – | – |
| COc1ccccc1N | Not Active | Not Active | – | – |
| N[C@@H](Cn1ccc(=O)c(O)c1)C(=O)O [L-MIMOSINE] | Not Active | Not Active | Not Active | – |
| CS(=O)(=O)Nc1ccc([N+](=O)[O-])cc1Oc1ccccc1 [NIMESULIDE] | Not Active | Not Active | – | – |
| C[N+](C)(C)C[C@H](O)CC(=O)[O-] [LEVOCARNITINE] | Not Active | Not Active | – | – |
| O=C(O)c1cc(-c2ccc(F)cc2F)ccc1O [DIFLUNISAL] | Not Active | Not Active | – | – |
| CC(C)(C)NCC(O)COc1cccc2c1CC(O)C(O)C2 (stereo unspecified) [NADOLOL] | Not Active | Not Active | – | – |
| CCCNC(=O)NS(=O)(=O)c1ccc(Cl)cc1 [CHLORPROPAMIDE] | Not Active | Not Active | – | – |
| CO/N=C(\C(=O)N[C@@H]1C(=O)N2C(C(=O)O)=C(COC(C)=O)CS[C@H]12)c1csc(N)n1 [CEFOTAXIME] | Not Active | Not Active | – | – |
| Nc1cc(-c2ccncc2)c[nH]c1=O [INAMRINONE] | Not Active | Not Active | Not Active | – |
